Laboratory results published in patent US20240279228A1, “NOVEL SALTS AND CRYSTALS” (INTRA-CELLULAR THERAPIES, INC., priority 2021, published 2024).
Structures can show the parent of a compound that is named as a salt. Where two headings read alike, the source gives them in different places.

What was measured:
[1] = Colour and chemical stability of the solid salt in air; assay type: physicochemical; conditions: for Colorization: tosylate salt product of process experiment
[2] = Hygroscopicity of Compound A free base; assay type: physicochemical
[3] = Solubility of Compound A free base in solvents; assay type: physicochemical
[4] = Decomposition of salt crystals by NMR; assay type: physicochemical; conditions: crystals from salt screening
Method: Further experiments are performed using some of the successful acid/solvent/method conditions from Example 1, with variations in the solvent volume and/or material concentrations and/or changes to the molar ratio of Compound A free base to acid (1:1.2, 1:1.5 or 1:2). Some experiments are further repeated at a 500 mg scale for confirmation of the results, including additional analysis, including 1H-NMR, DSC/TGA, and/or FTIR.

[5] = Solubility of the salts in water; assay type: physicochemical; conditions: salt
[6] = solid tosylate salt of WO2020/131895, on standing; cited from earlier work

With `O=C1CN2c3c(cccc3[C@@H]3CN(CCCOc4ccc(F)cc4)CC[C@@H]32)N1` [Compound 3-2] as the compound, how does the Colorization [1] read?
The Colorization was “Yes”.

For `O=C1CN2c3c(cccc3[C@@H]3CN(CCCOc4ccc(F)cc4)CC[C@@H]32)N1` [Compound 5-1], which Colorization [1] is on record?
The Colorization was “No”.

Which Colorization [1] does the source give for `O=C1CN2c3c(cccc3[C@@H]3CN(CCCOc4ccc(F)cc4)CC[C@@H]32)N1` [Compound 5-2] here?
Its Colorization is “No”.

With `O=C1CN2c3c(cccc3[C@@H]3CN(CCCOc4ccc(F)cc4)CC[C@@H]32)N1` [Compound 5-3] as the compound, how does the Colorization [1] read?
Its Colorization is “No”.

With `O=C1CN2c3c(cccc3[C@@H]3CN(CCCOc4ccc(F)cc4)CC[C@@H]32)N1` [Compound 5-4] as the compound, how does the Colorization [1] read?
The Colorization was “No”.

With `O=C1CN2c3c(cccc3[C@@H]3CN(CCCOc4ccc(F)cc4)CC[C@@H]32)N1` [Compound 5-5] as the compound, how does the Colorization [1] read?
Its Colorization is “Slight”.

What does the source list for `O=C1CN2c3c(cccc3[C@@H]3CN(CCCOc4ccc(F)cc4)CC[C@@H]32)N1` [Compound A, (6bR,10aS)-8-(3-(4-fluorophenoxy)propyl)-6b,7,8,9,10,10a-hexahydro-1H-pyrido[3′,4′:4,5]pyrrolo[1,2,3-de]quinoxalin-2(3H)-one]?
Hygroscopicity [2]: slightly hygroscopic; Solubility (general) ([3]; free base form): very poor solubility; Solubility in DMSO ([3]; free base, DMSO): freely soluble; Solubility in anisole ([3]; free base, anisole): sparingly soluble; Solubility in ethyl salicylate ([3]; free base, ethyl salicylate): sparingly soluble; Solubility in most organic solvents and water ([3]; free base, most organic solvents and water): less than sparingly soluble; solubility ([3]; free base, water, read-out: Solubility in water): < 11 mg/mL; solubility ([3]; organic solvent or mixture, free base, 2-butanol, read-out: Solubility in 2-butanol): < 11 mg/mL; solubility ([3]; organic solvent or mixture, free base, cyclohexane, read-out: Solubility in cyclohexane): < 11 mg/mL; solubility ([3]; organic solvent or mixture, free base, ethyl acetate, read-out: Solubility in ethyl acetate): < 11 mg/mL; solubility ([3]; organic solvent or mixture, free base, heptane, read-out: Solubility in heptane): < 11 mg/mL; solubility ([3]; organic solvent or mixture, free base, methanol, read-out: Solubility in methanol): < 11 mg/mL

Which “Colour change of the powder” value ([1]; at room temperature) does the source give for `O=C1CN2c3c(cccc3[C@@H]3CN(CCCOc4ccc(F)cc4)CC[C@@H]32)N1` [Example 3] here?
Its value is “slowly turns purple”.

With `O=C1CN2c3c(cccc3[C@@H]3CN(CCCOc4ccc(F)cc4)CC[C@@H]32)N1` [hydrochloride crystals] as the compound, how does the “Decomposition by NMR” value [4] read?
The value was “show decomposition”.

Which Solubility in water [5] does the source give for `O=C1CN2c3c(cccc3[C@@H]3CN(CCCOc4ccc(F)cc4)CC[C@@H]32)N1` [oxalate salt] here?
Its Solubility in water is 0.2 to 0.3 mg/mL.

What does the source list for `O=C1CN2c3c(cccc3[C@@H]3CN(CCCOc4ccc(F)cc4)CC[C@@H]32)N1` [tosylate salt]?
Solubility in water [5]: 1.2 to 1.7 mg/mL; Discoloration on standing [6]: discolors on standing
